Measured values: patent US20240390508A1, “HUMAN TRANSFERRIN RECEPTOR BINDING PEPTIDE-DRUG CONJUGATE” (priority 2021, published 2024)

Target: transferrin receptor (hTfR) (Homo sapiens, UniProt P02786)
Assay: Intermolecular interaction evaluation test between transferrin receptor (hTfR) and peptide-nucleic acid conjugate using surface plasmon resonance (SPR)
Assay type: binding
Protocol: Intermolecular interaction evaluation test between transferrin receptor (hTfR) and peptide using surface plasmon resonance (SPR)
The various synthesized peptide-nucleic acid conjugates were tested for intermolecular interaction by surface plasmon resonance (SPR) of the peptide-nucleic acid conjugate with transferrin receptor (hTfR) using the method shown below. The specific test method is shown below.
NTA sensor chip (Global Life Science Technologies Japan Co., Ltd.) was inserted into Biacore T200 (Global Life Science Technologies Japan Co., Ltd.), prime operation was performed three times with running buffer: 10 mM HEPES pH 8.0 (Nacalai Tesque Co., Ltd.), 150 mM NaCl (Nacalai Tesque Co., Ltd.), 0.05% Tween 20 (Nacalai Tesque Co., Ltd.), 0.1% BSA (SIGMA-ALDRICH), and 1.0% DMSO (FUJIFILM Wako Pure Chemical Corporation), and equilibrated at a flow rate of 30 μL/min. 350 mM EDTA solution was reacted for 60 seconds at a flow rate of 10 μL/min, 0.5 mM NiCl2 solution (Kishida Chemical) was reacted for 60 seconds at a flow rate of 10 μL/min, and the NTA sensor chip was washed with 3 mM EDTA solution (Nacalai Tesque Co., Ltd.) for 60 seconds at a flow rate of 10 μL/min. After mixing 50 μL each of […] EDC solution (Global Life Science Technologies Japan Co., Ltd.) and […] NHS solution (Global Life Science Technologies Japan Co., Ltd.), the mixture was reacted for 420 seconds at a flow rate of 10 μL/min. 150 μL of a 0.5 μM hTfR solution was prepared by diluting with a running buffer and reacted for 300 seconds at a flow rate of 10 μL/min to immobilize hTfR on the NTA sensor chip. After immobilization, capping was performed by reacting with a 1.0 M ethanolamine aqueous solution (Global Life Science Technologies Japan Co., Ltd.) at a flow rate of 10 μL/min for 420 seconds. A peptide-nucleic acid conjugate solution adjusted to 10 mM in DMSO solution was diluted with running buffer to a final concentration of 10 μM peptide-nucleic acid conjugate solution, and 100 nM, 50 nM, 25 nM, 10 nM, 5 nM peptide-nucleic acid conjugate solutions were prepared. Using the aforementioned samples, the kinetics of the peptide against hTfR was obtained by SPR measurement.
The kinetics evaluation model was Single Cycle Kinetics, and curve fitting was performed using Biacore T200 Evaluation Software Version 3.0 (Global Life Science Technologies Japan Co., Ltd.). The obtained sensorgram was subjected to curve fitting using the least squares method, and the binding of the peptide-nucleic acid conjugate to hTfR was evaluated by determining the KD value.

Sequence of transferrin receptor (hTfR) (P02786 whole entry): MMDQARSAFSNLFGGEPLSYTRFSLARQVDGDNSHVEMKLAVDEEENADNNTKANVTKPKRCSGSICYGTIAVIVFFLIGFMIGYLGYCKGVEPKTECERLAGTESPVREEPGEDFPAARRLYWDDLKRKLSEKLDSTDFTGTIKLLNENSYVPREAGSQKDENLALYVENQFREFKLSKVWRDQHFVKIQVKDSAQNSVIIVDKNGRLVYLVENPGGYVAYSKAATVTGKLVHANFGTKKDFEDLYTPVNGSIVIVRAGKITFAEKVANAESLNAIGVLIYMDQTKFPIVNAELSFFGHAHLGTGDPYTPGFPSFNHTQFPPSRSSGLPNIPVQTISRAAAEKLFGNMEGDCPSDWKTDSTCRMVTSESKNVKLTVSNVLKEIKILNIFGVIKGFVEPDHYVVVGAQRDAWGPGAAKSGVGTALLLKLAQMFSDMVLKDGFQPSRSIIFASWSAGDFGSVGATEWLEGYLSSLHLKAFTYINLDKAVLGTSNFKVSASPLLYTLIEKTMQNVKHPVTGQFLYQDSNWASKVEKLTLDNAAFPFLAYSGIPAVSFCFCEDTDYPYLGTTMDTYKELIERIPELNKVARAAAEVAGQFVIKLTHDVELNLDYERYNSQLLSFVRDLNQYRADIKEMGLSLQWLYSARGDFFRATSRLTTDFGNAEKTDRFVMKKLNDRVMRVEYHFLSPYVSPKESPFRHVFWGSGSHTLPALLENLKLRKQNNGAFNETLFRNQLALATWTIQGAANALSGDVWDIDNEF

For `CC[C@H](C)[C@@H]1NC(=O)[C@H](Cc2ccc(O)cc2)NC(=O)[C@H](Cc2ccc(O)cc2)NC(=O)[C@H](CC(N)=O)NC(=O)[C@H](Cc2c[nH]c3ccccc23)NC(=O)[C@H](C(C)C)NC(=O)[C@H](Cc2ccccc2)N(C)C(=O)[C@H](C(C)C)NC(=O)[C@H](C)NC(=O)CSC[C@@H](C(=O)NCC(=O)N[C@@H](CCCCn2cc(CCC(=O)NCCOCCOCC(=O)N[C@@H](CCCNC(=N)N)C(=O)N[C@@H](CCCNC(=N)N)C(=O)N[C@@H](CCCNC(=N)N)C(=O)NCC(=O)N3C[C@@H](COP(=O)(N(C)C)N4C[C@@H](COP(=O)(N(C)C)N5C[C@@H](COP(=O)(N(C)C)N6C[C@@H](COP(=O)(N(C)C)N7C[C@@H](COP(=O)(N(C)C)N8C[C@@H](COP(=O)(N(C)C)N9C[C@@H](COP(=O)(N(C)C)N%10C[C@@H](COP(=O)(N(C)C)N%11C[C@@H](COP(=O)(N(C)C)N%12C[C@@H](COP(=O)(N(C)C)N%13C[C@@H](COP(=O)(N(C)C)N%14C[C@@H](COP(=O)(N(C)C)N%15C[C@@H](COP(=O)(N(C)C)N%16C[C@@H](COP(=O)(N(C)C)N%17C[C@@H](COP(=O)(N(C)C)N%18C[C@@H](COP(=O)(N(C)C)N%19C[C@@H](COP(=O)(N(C)C)N%20C[C@@H](COP(=O)(N(C)C)N%21C[C@@H](COP(=O)(N(C)C)N%22C[C@@H](COP(=O)(N(C)C)N%23C[C@@H](COP(=O)(N(C)C)N%24C[C@@H](COP(=O)(N(C)C)N%25C[C@@H](COP(=O)(N(C)C)N%26C[C@@H](COP(=O)(N(C)C)N%27C[C@@H](COP(=O)(N(C)C)N(C)CC(N)=O)O[C@@H](n%28cnc%29c(=O)[nH]c(N)nc%29%28)C%27)O[C@@H](n%27cnc%28c(=O)[nH]c(N)nc%28%27)C%26)O[C@@H](n%26ccc(N)nc%26=O)C%25)O[C@@H](n%25ccc(N)nc%25=O)C%24)O[C@@H](n%24cnc%25c(N)ncnc%25%24)C%23)O[C@@H](n%23cnc%24c(N)ncnc%24%23)C%22)O[C@@H](n%22cnc%23c(N)ncnc%23%22)C%21)O[C@@H](n%21ccc(N)nc%21=O)C%20)O[C@@H](n%20ccc(N)nc%20=O)C%19)O[C@@H](n%19cc(C)c(=O)[nH]c%19=O)C%18)O[C@@H](n%18ccc(N)nc%18=O)C%17)O[C@@H](n%17cnc%18c(=O)[nH]c(N)nc%18%17)C%16)O[C@@H](n%16cnc%17c(=O)[nH]c(N)nc%17%16)C%15)O[C@@H](n%15ccc(N)nc%15=O)C%14)O[C@@H](n%14cc(C)c(=O)[nH]c%14=O)C%13)O[C@@H](n%13cc(C)c(=O)[nH]c%13=O)C%12)O[C@@H](n%12cnc%13c(N)ncnc%13%12)C%11)O[C@@H](n%11ccc(N)nc%11=O)C%10)O[C@@H](n%10ccc(N)nc%10=O)C9)O[C@@H](n9cc(C)c(=O)[nH]c9=O)C8)O[C@@H](n8cnc9c(=O)[nH]c(N)nc98)C7)O[C@@H](n7cnc8c(N)ncnc87)C6)O[C@@H](n6cnc7c(N)ncnc76)C5)O[C@@H](n5cnc6c(N)ncnc65)C4)O[C@@H](n4cc(C)c(=O)[nH]c4=O)C3)nn2)C(N)=O)NC(=O)[C@H](Cc2ccc(O)cc2)N(C)C(=O)[C@H](Cc2ccc(O)cc2)NC(=O)[C@H](CCCNC(=N)N)NC(=O)[C@H](CCCNC(=N)N)NC(=O)[C@H]([C@@H](C)CC)NC1=O` (stereo partly shown) [Example 60], the Kd was < 0.1 µM.
